Test results from patent US8871751B2, “Compositions and methods relating to nuclear hormone and steroid hormone receptors including inhibitors of estrogen receptor alpha-mediated gene expression and inhibition of breast cancer” (The Board of Trustees of the University of Illinois, priority 2008, dated 2014).
Where two headings read alike, the source gives them in different places.

Key:
ERα [1] = biological target: T1, ERα (Homo sapiens, UniProt P03372); parameters: Using a stably transfected breast cancer cell line that expresses endogenous ERα; endogenous in cells; host or cells: T47D-KBluc; settings: T47D cells, conditions identical to TPSF; see Mao C et al., 2008; read-out: IC50 for inhibition of E2-ERα-mediated (ERE)3-luciferase expression; cited from earlier work
T1 sequence (P03372 1-595): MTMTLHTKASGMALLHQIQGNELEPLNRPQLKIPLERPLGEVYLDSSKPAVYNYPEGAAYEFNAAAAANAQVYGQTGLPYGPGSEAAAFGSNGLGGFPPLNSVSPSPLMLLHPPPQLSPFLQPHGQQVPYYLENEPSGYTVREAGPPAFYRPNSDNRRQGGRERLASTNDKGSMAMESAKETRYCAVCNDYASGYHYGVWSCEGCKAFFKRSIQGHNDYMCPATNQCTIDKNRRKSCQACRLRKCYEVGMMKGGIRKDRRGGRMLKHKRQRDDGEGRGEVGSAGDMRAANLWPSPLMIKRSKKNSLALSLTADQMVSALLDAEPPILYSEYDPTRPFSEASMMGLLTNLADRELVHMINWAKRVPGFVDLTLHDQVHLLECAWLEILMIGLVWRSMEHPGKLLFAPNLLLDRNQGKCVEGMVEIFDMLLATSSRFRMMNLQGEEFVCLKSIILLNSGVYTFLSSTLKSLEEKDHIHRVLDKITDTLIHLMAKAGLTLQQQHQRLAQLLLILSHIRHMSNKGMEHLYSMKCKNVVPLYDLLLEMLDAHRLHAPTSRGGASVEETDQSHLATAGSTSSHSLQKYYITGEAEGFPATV

ERα [2] = biological target: T1, ERα; assay: pS2 mRNA induction in MCF7ERαHA cells; assay type: cell-based; parameters: endogenous in cells; settings: 10 μM, Dox, 100 pM E2, 24 h
Description: A model for tamoxifen-resistant breast cancers that overexpress ERα is MCF7ERαHA cells, which is a tetracycline-inducible MCF-7 model in which doxycycline (Dox) induces overexpression of ERα (40,41). In contrast to MCF-7 cells, in these cells Tam and OHT are potent agonists (2,42) and OHT, which stabilizes ERα, induced proteinase inhibitor 9 (PI-9) mRNA and protein more effectively than E2 (2,43). MCF7ERαHA cells were maintained in 10% 6XCD-treated FBS (40,41). All cells were in 0.1% DMSO vehicle and contained the indicated concentrations of TPBM added at the same time as the E2 or OHT. To induce PI-9 mRNA, the cells were treated with 0.5 μg/ml doxycycline to induce ERα and ethanol vehicle, 100 pM E2 or 500 pM OHT for 24 h, mRNA was extracted and PI-9 mRNA levels were determined by quantitative RT-PCR as described (2).
Saturating E2 (100 pM, FIG. 7A) and OHT (500 pM, FIG. 7B) induced PI-9 mRNA by 150 and 500 fold, respectively. […] The less complete inhibition of PI-9 induction in the OHT-treated cells likely results from the ˜4 fold higher level of ERα after OHT treatment than after E2 treatment (FIG. 7C). The PI-9 gene is representative of the many genes that contain complex estrogen response elements including ERE half sites. To confirm that TPBM inhibits expression of an endogenous gene that contains a near consensus ERE we used the pS2 gene. […]

MCF7ERαHA cells = assay: Growth of tamoxifen-resistant MCF7ERαHA cells (MTS); assay type: cell-based, human; settings: 5 μM, Dox, 1 pM E2, 4 days
Protocol: FIG. 19 illustrates that TPSF, but not OHT, is capable of inhibiting E2-ERα-dependent growth of tamoxifen-resistant breast cancer cells as measured in MCF7ERαHA cells. MCF7ERαHA cells were maintained for 4 days in 6× stripped CD-FBS, seeded into 12 well plates containing or lacking Dox (0.5 μg/ml), E2 (1 pM) OHT (5 μM) and TPSF (5 μM), grown for 4 days and assayed using MTS with a standard curve for cell number. Cells in ethanol and DMSO vehicle alone were set to 100%. Data represents the average of 3 experiments±SEM. The difference between the cells incubated with TPSF+E2+Dox compared to the cells in Dox, and E2 and to the cells in Dox, E2 and OHT was significant (P<0.05 using Student's two-tailed T test).
Assays for Cell Growth and Viability. Cells were maintained in the media listed above containing CD-treated serum for at least 4 days prior to the experiment. To minimize cell aggregation, MCF-7 cells were harvested in 10 mM Hepes, pH 7.4, 1 mM EDTA. Other cell lines were harvested in trypsin-EDTA. 1,000 cells were plated into each well of a 96 well plate. For slow growing ZR-75 cells, 2,000 cells were plated/well. The cells were maintained in medium containing CD-treated serum for 24 hours. […] After 4 days viable cells were determined using a cell viability test, Promega CellTiter 96 Aqueous One Solution Cell Proliferation Assay (MTS) (Promega, Wis.).

ERα [3] = biological target: T1, ERα; assay: (ERE)3-luciferase reporter gene assay in T47D-KBluc cells; assay type: cell-based; parameters: Using a stably transfected breast cancer cell line that expresses endogenous ERα; endogenous in cells; host or cells: T47D-KBluc

| reduction of induction of pS2 mRNA (ERα [2]) [%] | induction of pS2 mRNA (ERα [2]; 24±3 fold without TPBM) [fold] | IC50 (ERα [3]; 0.2 nM E2, 24 h, read-out: IC50 for inhibition of E2-ERα-mediated (ERE)3-luciferase expression) [µM] | IC50 (ERα [3]; 100 nM E2, 24 h, read-out: IC50 for inhibition of E2-ERα-mediated (ERE)3-luciferase expression (ERE-Luc)) [µM] | Compound | IC50 (ERα [1]) [µM] | effect on E2-ERα-dependent growth of MCF7ERαHA cells (MCF7ERαHA cells) |
| --- | --- | --- | --- | --- | --- | --- |
| 50 | 12±2 | – | – | Cn1c(=O)c2nc(CSCc3ccccc3)[nH]c2n(C)c1=O [Compound 95910, 8-Benzylsulfanylmethyl-1,3-dimethyl-3,7-dihydro-purine-2,6-dione] | 11 | – |
| – | – | 0.4 | 0.7 | Cn1c(=S)c2[nH]c(SCCCC(=O)c3ccc(F)cc3)nc2n(C)c1=O [TPSF, Butyrophenone, p-fluoro-4-(1,2,3,6,-tetrahydro-1,3-dimethyl-2-oxo-6-thionopurin-8-ylthio)] | – | inhibited |
